We go through one compound from PMC11992618, “Development of cyclopeptide inhibitors specifically disrupting FXR–coactivator interaction in the intestine as a novel therapeutic strategy for MASH” (Life Metabolism, 2025).

The nature of data set [1]: Water solubility (co-crystallisation attempts). The data set is classed as physicochemical. Here is the method:
To explore the molecular mechanism underlying DC646-mediated FXR antagonism, we determined the structure of the DC646 by X-ray crystal analysis (Supplementary Fig. S5). We also made efforts to co-crystalize DC646 with hFXRα-LBD. […] As an alternative, the AlphaScreen assay was conducted to investigate the mechanism (Fig. 3a).

Another data set has as its target T1, PPARα (Homo sapiens, UniProt Q07869).
T1 sequence (Q07869 1-468): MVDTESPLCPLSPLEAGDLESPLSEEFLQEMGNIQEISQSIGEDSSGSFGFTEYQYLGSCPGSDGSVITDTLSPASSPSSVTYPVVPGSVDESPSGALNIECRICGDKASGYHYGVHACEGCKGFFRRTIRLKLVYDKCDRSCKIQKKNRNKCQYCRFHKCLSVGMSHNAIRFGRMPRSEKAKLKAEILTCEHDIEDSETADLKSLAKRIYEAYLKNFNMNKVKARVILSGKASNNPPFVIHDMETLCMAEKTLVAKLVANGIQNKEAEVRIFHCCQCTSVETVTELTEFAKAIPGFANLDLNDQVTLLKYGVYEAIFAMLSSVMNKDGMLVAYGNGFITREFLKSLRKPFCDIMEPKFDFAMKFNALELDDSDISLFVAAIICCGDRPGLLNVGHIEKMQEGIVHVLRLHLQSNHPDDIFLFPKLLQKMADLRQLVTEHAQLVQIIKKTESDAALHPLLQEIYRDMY
Description: PPARα cell-based reporter assay. The following applies: 10 μmol/L; inhibition of agonist-induced receptor activation. An excerpt:
Inhibition% means inhibition percentage of agonist-induced receptor activation.
(A reporter such as luciferase makes a cellular process visible.)

One may read the inhibition as the change of the read-out against control, counted positive when it falls. Regarding `CC(C)C[C@@H]1NC(=O)[C@@H]2CN(CCO2)c2cccc3c2c(cn3[Si](C(C)C)(C(C)C)C(C)C)C[C@H](NS(=O)(=O)C(F)(F)F)C(=O)OCCCCNC(=O)[C@H](CC(C)C)NC(=O)[C@@H]2CN(CCO2)c2cccc3c2c(cn3[Si](C(C)C)(C(C)C)C(C)C)C[C@H](NS(=O)(=O)C(F)(F)F)C(=O)OCCCCNC1=O` [DC646, N,N'-((1^2R,1^4S,16^2R,16^4S,4R,13R,19R,28R)-13,28-diisobutyl-5,12,15,20,27,30-hexaoxo-2^1,17^1-bis(triisopropylsilyl)-2^1H,17^1H-6,21-dioxa-11,14,26,29-tetraaza-1(4,2),16(2,4)-dimorpholina-2,17(4,3)-diindolacyclotriacontaphane-4,19-diyl)bis(1,1,1-trifluoromethanesulfonamide)], the Water solubility entry in data set [1] is “poor water solubility”. Further, at PPARα, the inhibition at 10 µM is -1.3%.
